Reference: US7714014B2, “Targeting GLI proteins in human cancer by small molecules” (The Regents of the University of California, priority 2005, dated 2010)

Key:
HT29 (colon cancer) = assay: Apoptosis analysis (Annexin V FITC, flow cytometry); format: cell-based, human; settings: for % of apoptotic cells: about 3 days
Protocol: (§1) Apoptosis was analyzed by using an Annexin V FITC Apoptosis Detection Kit (Biosource, Camarillo, Calif.), according to the manufacturer's protocol. After treatment with different small molecule compounds at various concentrations for about 3 days, cells were harvested by trypsinization, stained and immediately analyzed by flow cytometry (FACScan; Decton Dickinson, Franklin Lake, N.J.). Early apoptotic cells with exposed phosphatidylserine but intact cell membranes will bind to Annexin V-FITC, but not propidium iodide (PI). Cells in necrotic or late apoptotic stages will be labeled with both Annexin V-FITC and PI. “% apoptotic cells” or “% apoptosis” refers to the combined early and late apoptotic cells.
Flow cytometry was used to examine apoptosis in colon cancer cell line HT29 after treatment of cells with small molecule compounds FN1-5 and FN1-8. While FN1-5 induced apoptosis in HT29 cells (at 50 μM 35% apoptotic cells were observed; Table 2), no apoptosis was observed after treatment with FN1-8 (Table 3).

A549 (NSCLC) = assay: as above; format: cell-based, human; settings: 3 days
Protocol: as §1
Flow cytometry was also used to examine apoptosis in several NSCLC cell lines after treatment with small molecule compounds of the invention.
Dose titration experiments of small molecule compound FN1-8 was performed using the NSCLC cell lines A549, H358, and H322. A 549, H358, and H322 cells were plated in 6-well plates and incubated with DM SO (control) or 7.5 μM, 10 μM, 15 μM, 20 μM, and 30 μM of FN1-8, respectively, for 3 days. A dramatic and dose-dependent cell killing in these cell lines was observed when FN1-8 was added at 15 μM or more. FN1-8 induced cell killing in A549 and […] at slightly lower concentrations than in H322 cells (data not shown). After 3 days, approximately 28% of the A549 cells and 58% of H358 underwent apoptosis when incubated with 20 μM FN1-8 (Table 3).

[1] = tested on: Primary cultured NSCLC cells; assay: as above; format: cell-based, human; settings: 3 days
Protocol: Fresh cancer tissue and adjacent normal tissue from patients undergoing curative primary resection of their tumors were collected at the time of surgery (IRB approval H8714-15319-040), and immediately snap-frozen in liquid nitrogen. These tissue samples were kept at −170° C. in a liquid nitrogen freezer until further use. Primary tissue cultures were prepared as follows: Fresh cancer tissue was obtained with consent from patients undergoing resection, cut into small pieces (1-2 mm in diameter), and then digested with Collagenase A (Roche Applied Science, Indianapolis, Ind.) at room temperature for 2 hours according to manufacture's protocol. Single cells from the digestion were spun down and the cell pellets were washed twice using RPMI 1640 supplemented with 10% fetal bovine serum, penicillin (100 IU/ml) and streptomycin (100 μg/ml). Then, the cells were resuspended in the same medium and cultured in 6-well plates at 37° C. in a humid incubator with 5% CO2 until they were ready for further treatments.
as §1
Flow cytometry was also used to examine apoptosis induced by molecule compounds of the invention. in primary cultured NSCLC cells freshly made from tissue samples. […] For example, app.

[2] = tested on: human ovarian cancer cell line AZ23247; assay: Cell survival assay (crystal violet); format: cell-based; settings: AZ23247, 30 μM and 50 μM
Protocol: Typically, the small molecule compounds of the present invention were dissolved in DMSO at a concentration of 30 mM. The small molecule compounds were then tested under cell culture conditions at different concentrations ranging from 0, 10, 30, 50, to 100 uM. To determine cell survival after treatment, the cells were incubated with the small molecule compounds in 6-well plates for about 3 days. After removal of the cell culture medium, 1-ml of 0.5% crystal violet solution (prepared in 20% ethanol and 20% methanol) was added to stain the cells for 5 min. Then the crystal violet solution was rinsed clean with tap water. Cell survival was estimated based on the density of crystal stained plates.
The cell-based cytotoxicity assay described herein was used to determine the effect of small molecule compounds FN1-5 and FN1-8 in the human ovarian cancer cell line AZ23247. Viability of AZ23247 cells was analyzed after treatment with 10, 30 and 50 μM FN1-5 or FN1-8.

[3] = tested on: Tcf-mediated gene transcription (canonical Wnt signaling) in colon cancer cell line SW480; assay: TOPFLASH (TOP/FOP) assay; format: cell-based, human
Protocol: Cells were plated in 12-well plates. The TOPFLASH or FOPFLASH reporter plasmid (Upstate; Charlottesville, Va.) was transfected transiently into cells as described above. Tcf-mediated gene transcription was determined by the ratio of pTOPFLASH:pFOPFLASH luciferase activity, each was normalized to luciferase activities of the pRL-TK reporter (co-transfected internal control). All experiments were performed in triplicate, and repeated three times.
Regulation of TOP/FOP activity by the same compounds as described above was also analyzed in the colon cancer cell line SW480.

[4] = tested on: SW480 cells transfected with empty pCDNA3 vector or Gli2 cDNA expression construct; assay: GLI2 over-expression rescue experiment; format: cell-based, human; settings: 5 days
Protocol: For transient transfection experiments, cells (2×10^5) were plated in six-well plates using growth medium without antibiotics 24 hrs before transfection. Lipofectamine™ 2000 (Invitrogen Life Technologies; Carlsbad, Calif.) was used to mediate transfection using 2.0 μg of cDNA in pCDNA3 vector or 2.0 μg empty pCDNA3 vector as control, according to the manufacturer's protocol. Then the transfected cells were cultured at 37° C. in a humid incubator with 5% CO2 until they were ready for analysis. Gli2 cDNA was kindly provided by Dr. Fritz Aberger at University of Salzburg (Salzburg, Austria). Gli1 and Gli3 cDNA were kindly provided by Dr. Bert Vogelstein and Dr. Kenneth W. Kinzler at the Sidney Kimmel Comprehensive Cancer Center of the Johns Hopkins University (Baltimore, Md.). TAFIII31 cDNA was kindly provided by Dr. Gregory L. Verdine at Harvard University (Cambridge, Mass.).
As described herein, GLI3 seems to activate transcription of Gli1 and Gli2 genes. […] If so, then transfecting a GLI1 and/or GLI2 expression construct into a cell treated with a small molecule compound of the present invention, should lead to at least a partial rescue of the apoptotic effect mediated by the small molecule compound. Thus, to further examine the specificity of the small molecule compound FN1-5, as well as its inhibitory mechanisms, it was tested whether over-expressing GLI2 protein could attenuate the cell killing effect of FN1-5. In this experiment, the colon cancer cell line SW480 was transfected with either empty pCDNA3 vector or with a Gli2 cDNA expression construct. After selection, the transfected cells were re-plated in 6-well plates at same numbers, and then FN1-5 was added into medium at a final concentration of 50 μM.
To further examine the specificity of the small molecule compound FN1-8, as well as its inhibitory mechanisms, we tested whether over-expressing GLI2 protein could attenuate the cell killing effect of FN1-8. The transfection experiment was performed as described above. After 5 days, apoptosis analysis using flow cytometry was performed to quantify the experiment.

Row | SMILES | % of apoptotic cells (HT29 (colon cancer); HT29, 10 μM) [%] | % of apoptotic cells (HT29 (colon cancer); HT29, 30 μM) [%] | % of apoptotic cells (HT29 (colon cancer); HT29, 50 μM) [%] | % of apoptotic cells (A549 (NSCLC); A549, 10 μM) [%] | % of apoptotic cells (A549 (NSCLC); A549, 100 μM) [%] | % of apoptotic cells ([1]; 30 μM) [%] | % of apoptotic cells ([1]; 50 μM) [%] | cell killing [2] | TOP/FOP activity [3] | cell killing, Gli2-transfected versus empty vector cells ([4]; 50 μM) | apoptosis induction (HT29 (colon cancer); HT29, flow cytometry) | % of apoptotic cells ([1]; 10 μM) [%] | reduction of TOP/FOP activity [3] | apoptotic cells ([4]; SW480 transfected with empty vector) [%] | apoptotic cells ([4]; SW480 transfected with the Gli2 expression construct) [%]
1 | O=C(NCCCCCO)C1C(c2ccccc2)=NN(c2ccccc2)C1c1ccccc1 (stereo not drawn) [FN1-5, N-(5-Hydroxypentyl)-1,3,5-triphenyl-4,5-dihydro-pyrazole-4-carboxyamide] | 5.8 | 15.5 | 32.9 | 9.4 | 30.0 | 11.2 | 19.8 | dramatic cell killing | lesser effect | kill less cells transfected with Gli2 than those with empty vector | – | – | – | – | –
2 | O=C(NCCc1ccc(O)cc1)C1C(c2ccccc2)=NN(c2ccccc2)C1c1ccccc1 (stereo not drawn) [FN1-8, N-(2-(4-Hydroxyphenyl)ethyl)-1,3,5-triphenyl-4,5-dihydro-pyrazole-4-carboxyamide] | – | 3.1 | 5.3 | 12.5 | – | 13.1 | 58.0 | dramatic cell killing | – | – | no apoptosis | 9.8 | about 32% | 48.1 | 27.7
